US20240269146A1, “USE OF PELABRESIB FOR TREATING ANEMIAS” (Constellation Pharmaceuticals, Inc., priority 2021, published 2024)
“Also recorded” adds a separate entry of the source.

Assay: Pelabresib Form A monohydrate administered to human subjects with myelofibrosis, with or without ruxolitinib (FIG. 1)
Type: in vivo
Conditions: median starting dose 125 mg QD, max 225 mg QD, median duration 47 weeks
Description: Pelabresib Form A monohydrate was administered to human subjects (with or without ruxolitinib) with a median starting dose of 125 mg QD and a max dose of 225 mg QD for a median duration of 47 weeks. The results of this study are shown in FIG. 1 (Arm 1 being pelabresib Form A and Arm 2 being pelabresib Form A in combination with ruxolitinib).

For Cc1noc2c1-c1ccccc1C(c1ccc(Cl)cc1)=N[C@H]2CC(N)=O [pelabresib, 2-((4S)-6-(4-chlorophenyl)-1-methyl-4H-benzo[c]isoxazolo[4,5-e]azepin-4-yl)acetamide], which hemoglobin is on record?
Its hemoglobin is “improving hemoglobin”.

And the “reticulocyte count (number of reticulocytes)” value?
The value was “increases the number of reticulocytes; also recorded: effective in increasing reticulocytes”.
